Experimental data as given in patent US20160214956A1, “NOVEL SOLUBLE GUANYLATE CYCLASE ACTIVATORS AND THEIR USE” (GLAXOSMITHKLINE INTELLECTUAL PROPERTY DEVELOPMENT LIMITED, priority 2013, published 2016).
Where a name gives a salt, the structure may show the parent alone.

Molecular target: T1, soluble guanylate cyclase (sGC) (Rattus norvegicus, UniProt P20595)
T1 construct: endogenous in cells; host or cells: primary rat aortic smooth muscle cells
T1 sequence (P20595 1-619): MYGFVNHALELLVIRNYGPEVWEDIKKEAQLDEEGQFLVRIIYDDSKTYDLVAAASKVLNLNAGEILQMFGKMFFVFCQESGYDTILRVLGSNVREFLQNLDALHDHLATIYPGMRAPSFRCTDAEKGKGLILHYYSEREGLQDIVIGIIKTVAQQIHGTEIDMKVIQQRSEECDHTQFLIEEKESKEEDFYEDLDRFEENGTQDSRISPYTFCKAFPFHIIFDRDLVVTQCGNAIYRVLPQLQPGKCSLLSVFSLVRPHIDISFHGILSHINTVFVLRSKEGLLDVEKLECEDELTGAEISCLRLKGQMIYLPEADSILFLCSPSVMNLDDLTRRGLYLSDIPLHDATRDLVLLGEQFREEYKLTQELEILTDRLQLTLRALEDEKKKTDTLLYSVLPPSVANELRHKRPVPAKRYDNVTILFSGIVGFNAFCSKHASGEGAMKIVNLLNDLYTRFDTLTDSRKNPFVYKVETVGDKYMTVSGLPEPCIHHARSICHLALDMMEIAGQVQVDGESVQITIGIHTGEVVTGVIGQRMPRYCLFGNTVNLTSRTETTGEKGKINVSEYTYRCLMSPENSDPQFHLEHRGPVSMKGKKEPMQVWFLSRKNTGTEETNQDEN
T1 sequence (P19686 1-690 partner): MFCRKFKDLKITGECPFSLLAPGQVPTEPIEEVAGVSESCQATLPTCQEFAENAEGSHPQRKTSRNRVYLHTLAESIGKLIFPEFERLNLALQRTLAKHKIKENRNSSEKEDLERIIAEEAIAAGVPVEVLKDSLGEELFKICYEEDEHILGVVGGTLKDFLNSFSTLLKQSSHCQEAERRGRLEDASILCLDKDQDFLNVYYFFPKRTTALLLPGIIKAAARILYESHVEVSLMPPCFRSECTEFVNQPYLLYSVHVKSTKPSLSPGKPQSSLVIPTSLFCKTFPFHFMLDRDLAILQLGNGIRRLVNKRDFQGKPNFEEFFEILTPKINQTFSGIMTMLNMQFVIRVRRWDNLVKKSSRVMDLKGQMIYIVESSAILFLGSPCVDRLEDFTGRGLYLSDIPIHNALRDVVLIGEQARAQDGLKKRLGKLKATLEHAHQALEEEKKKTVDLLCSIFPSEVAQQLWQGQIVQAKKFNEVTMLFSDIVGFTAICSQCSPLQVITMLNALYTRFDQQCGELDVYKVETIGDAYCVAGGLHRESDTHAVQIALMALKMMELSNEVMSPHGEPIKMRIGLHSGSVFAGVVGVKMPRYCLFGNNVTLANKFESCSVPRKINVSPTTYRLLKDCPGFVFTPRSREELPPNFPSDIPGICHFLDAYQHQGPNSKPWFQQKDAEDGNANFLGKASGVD
Assay: Cellular assay, VASP phosphorylation in rat aortic smooth muscle cells with ODQ
Format: cell-based
Conditions: phospho-VASP signal, primary rat aortic smooth muscle cells, 10 μM ODQ, 30 min incubation; 50% vs. Bmax; read-out: Cell assay pEC50 (converted)
Protocol: The activity of soluble guanylate cyclase (sGC) was tested in an assay based on measuring phosphorylation of the protein kinase G (PKG) substrate vasodilator-stimulated phosphoprotein (VASP) in rat aortic smooth muscle cells. […] Dimethylsulfoxide (DMSO) vehicle and varying concentrations of the compound to be tested were then added. Following a 30 min incubation at 37° C., media was aspirated and the cells were rinsed with phosphate-buffered saline (PBS) and fixed with 4% formaldehyde in PBS by incubating at room temperature for 20 min. Cells were then washed with PBS and permeabilized for 10 min using 0.1% triton X-100 in PBS. Following PBS rinsing, the cells were blocked for 90 min at room temperature with blocking buffer. The buffer was aspirated and the cells were treated overnight at 4° C. with primary antibody (pSer239-VASP, rabbit polyclonal Ab) diluted 1:500 in blocking buffer. Following three washes with 0.05% Tween 20, the cells were treated for 1 h at room temperature with a fluorescent labeled secondary antibody (IRDye® 800CW Donkey Anti-Rabbit IgG) diluted 1:2500 in blocking buffer with 0.05% Tween 20. Following two washes with PBS, infrared fluorescence was measured using an Odyssey Infrared Imaging System. The activity of a test compound was determined as the pEC50 value which is the concentration able to increase by 50% (vs. Bmax) the phospho-VASP fluorescent signal. Front. Pharmacol., 5 Jul. 2012|doi: 10.3389/fphar.2012.00128, Volume 3 July, 2012, Article number 128.

SMILES | EC50
Cc1cc(OCCCC(F)(F)F)ccc1CCc1ccc(F)cc1-c1cccc(-n2ncc(C(=O)O)c2C(F)(F)F)n1 [Example 13, 1-(6-(5-Fluoro-2-(2-methyl-4-(4,4,4-trifluorobutoxy)phenethyl)phenyl)pyridin-2-yl)-5-(trifluoromethyl)-1H-pyrazole-4-carboxylic acid] | 1.26 nM
Cc1cc(OCCCn2cccn2)ccc1CCc1ccc(F)cc1-c1cccc(-n2ncc(C(=O)O)c2C(F)(F)F)n1 [Example 14, 1-(6-(2-(4-(3-(1H-pyrazol-1-yl)propoxy)-2-methylphenethyl)-5-fluorophenyl)pyridin-2-yl)-5-(trifluoromethyl)-1H-pyrazole-4-carboxylic acid] | 1.58 nM
CCOC(=O)c1cnn(-c2cccc(-c3ccccc3CCc3ccc(OCCCC(F)(F)F)cc3C)n2)c1C(F)(F)F [Example 19, Ethyl 1-(6-(2-(2-methyl-4-(4,4,4-trifluorobutoxy)phenethyl)phenyl)pyridin-2-yl)-5-(trifluoromethyl)-1H-pyrazole-4-carboxylate] | 251 nM
Cc1cc(OCCCC(F)(F)F)ccc1CCc1ccccc1-c1cccc(-n2ncc(C(=O)O)c2C(F)(F)F)n1 [Example 21, 1-(6-(2-(2-methyl-4-(4,4,4-trifluorobutoxy)phenethyl)phenyl)pyridin-2-yl)-5-(trifluoromethyl)-1H-pyrazole-4-carboxylic acid, sodium salt] | 7.94 nM
Cc1cc(OCCCC(F)(F)F)ccc1CCc1ccccc1-c1cccc(-n2ncc(C(=O)OC(C)C)c2C(F)(F)F)n1 [Example 22, Isopropyl 1-(6-(2-(2-methyl-4-(4,4,4-trifluorobutoxy)phenethyl)phenyl)pyridin-2-yl)-5-(trifluoromethyl)-1H-pyrazole-4-carboxylate] | 1260 nM

Other lines, results leading:

EC50 | SMILES
39.8 nM | Cc1cc(OCCCn2cc(C#N)cn2)ccc1CCc1ccc(F)cc1-c1cccc(-n2ncc(C(=O)O)c2C(F)(F)F)n1 [Example 15, 1-(6-(2-(4-(3-(4-cyano-1H-pyrazol-1-yl)propoxy)-2-methylphenethyl)-5-fluorophenyl)pyridin-2-yl)-5-(trifluoromethyl)-1H-pyrazole-4-carboxylic acid, sodium salt]
6.31 nM | COc1cnn(CCCOc2ccc(CCc3ccc(F)cc3-c3cccc(-n4ncc(C(=O)O)c4C(F)(F)F)n3)c(C)c2)c1 [Example 16, 1-(6-(5-Fluoro-2-(4-(3-(4-methoxy-1H-pyrazol-1-yl)propoxy)-2-methylphenethyl)phenyl)pyridin-2-yl)-5-(trifluoromethyl)-1H-pyrazole-4-carboxylic acid, sodium salt]
20 nM | Cc1cc(OCCCn2cncn2)ccc1CCc1ccc(F)cc1-c1cccc(-n2ncc(C(=O)O)c2C(F)(F)F)n1 [Example 17, 1-(6-(2-(4-(3-(1H-1,2,4-triazol-1-yl)propoxy)-2-methylphenethyl)-5-fluorophenyl)pyridin-2-yl)-5-(trifluoromethyl)-1H-pyrazole-4-carboxylic acid, sodium salt]
7.94 nM | Cc1cc(OCCCn2ccc(C#N)n2)ccc1CCc1ccc(F)cc1-c1cccc(-n2ncc(C(=O)O)c2C(F)(F)F)n1 [Example 18, 1-(6-(2-(4-(3-(3-cyano-1H-pyrazol-1-yl)propoxy)-2-methylphenethyl)-5-fluorophenyl)pyridin-2-yl)-5-(trifluoromethyl)-1H-pyrazole-4-carboxylic acid, sodium salt]
